Data taken from patent US20210276977A1, “BICYCLIC INHIBITORS OF HISTONE DEACETYLASE” (Alkermes, Inc., priority 2018, published 2021).

What was measured:
[1] = molecular target: T1, Full length Human HDAC1 (Homo sapiens, UniProt Q13547); assay: HDAC1 enzymatic assay (deacetylation of FAM-labeled peptide substrate, microfluidic electrophoresis); type: biochemical; conditions: recombinant enzymatic assay
T1 construct: Full length Human HDAC1; His (C); FLAG (C); host or cells: baculovirus expression system
T1 sequence (Q13547 whole entry): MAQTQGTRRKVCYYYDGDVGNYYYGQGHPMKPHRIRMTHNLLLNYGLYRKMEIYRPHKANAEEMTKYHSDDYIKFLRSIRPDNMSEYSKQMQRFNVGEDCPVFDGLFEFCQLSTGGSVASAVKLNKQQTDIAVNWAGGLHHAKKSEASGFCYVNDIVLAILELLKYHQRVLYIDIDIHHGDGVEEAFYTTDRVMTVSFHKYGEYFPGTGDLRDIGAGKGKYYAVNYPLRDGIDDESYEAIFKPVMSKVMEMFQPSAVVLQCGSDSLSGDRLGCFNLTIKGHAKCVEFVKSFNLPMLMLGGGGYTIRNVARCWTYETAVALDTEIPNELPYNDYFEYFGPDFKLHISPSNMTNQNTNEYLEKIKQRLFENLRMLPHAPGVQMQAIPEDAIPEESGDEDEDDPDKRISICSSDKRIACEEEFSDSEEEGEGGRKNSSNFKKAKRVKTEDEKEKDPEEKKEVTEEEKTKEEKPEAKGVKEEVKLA
Experimental: (§1) HDAC2 and HDAC1 Enzymatic Assay (HDAC2 and HDAC1 IC50 Data)
(§2) The following describes an assay protocol for measuring the deacetylation of a peptide substrate by HDAC2 or HDAC1.
(§3) HD AC protein composition and respective substrate peptides are summarized below.
(§4) HD AC reactions are assembled in 384 well plates (Greiner) in a total volume of 20 μL as following:
(§5) HDAC proteins are pre-diluted in the assay buffer comprising: 100 mM HEPES, pH 7.5, 0.1% BSA, 0.01% Triton X-100, 25 mM KCl and dispensed into 384 well plate (10 uL per well).
(§6) Test compounds are serially pre-diluted in DMSO and added to the protein samples by acoustic dispensing (Labcyte Echo). Concentration of DMSO is equalized to 1% in all samples.
(§7) Control samples (0%-inhibition in the absence of inhibitor, DMSO only) and 100%-inhibition (in the absence of enzyme) are assembled in replicates of four and used to calculate the %-inhibition in the presence of compounds.
(§8) At this step compounds can be pre-incubated with enzyme if desired.
(§9) The reactions are initiated by addition of 10 uL of the FAM-labeled substrate peptide pre-diluted in the same assay buffer. Final concentration of substrate peptide is 1 uM (HDAC1-2).
(§10) The reactions are allowed to proceed at room temperature. Following incubation, the reactions are quenched by addition of 50 μL of termination buffer (100 mM HEPES, pH7.5, 0.01% Triton X-100, 0.1% SDS). Terminated plates are analyzed on a microfluidic electrophoresis instrument (Caliper LabChip® 3000, Caliper Life Sciences/Perkin Elmer) which enables electrophoretic separation of de-acetylated product from acetylated substrate. A change in the relative intensity of the peptide substrate and product is the parameter measured. Activity in each test sample is determined as the product to sum ratio (PSR): P/(S+P), where P is the peak height of the product, and S is the peak height of the substrate. Percent inhibition (Pinh) is determined using the following equation: Pinh=(PSR0% inh−PSRcompound)/(PSR0% inh−PSR100% inh)*100, in which: PSRcompound is the product/sum ratio in the presence of compound, PSR0% inh is the product/sum ratio in the absence of compound and the PSR100% inh is the product/sum ratio in the absence of the enzyme. To determine IC50 of compounds (50%-inhibition) the %-inh data (Pinh versus compound concentration) are fit by a 4 parameter sigmoid dose-response model using XLfit software (IDBS).
(§11) In the table, “A” indicates a IC50 value of less than 0.5 μM; “B” a IC50 value from 0.5 μM to 1.0 μM; “C” a IC50 value of greater than 1.0 μM and less than or equal to 2.0 μM; and “D” indicates an IC50 value of greater than 2.0 μM. NT=Not Tested.

[2] = molecular target: T2, HDAC2 (Homo sapiens, UniProt Q92769); assay: HDAC2 Enzymatic Inhibition Assay in SH-SY5Y Cell Lysate with an Exogenous Substrate (HDAC-Glo 2); type: cell-based; conditions: SH-SY5Y cells, five hours incubation, Table 3, class symbols
T2 construct: host or cells: SH-SY5Y cells
T2 sequence (Q92769 whole entry): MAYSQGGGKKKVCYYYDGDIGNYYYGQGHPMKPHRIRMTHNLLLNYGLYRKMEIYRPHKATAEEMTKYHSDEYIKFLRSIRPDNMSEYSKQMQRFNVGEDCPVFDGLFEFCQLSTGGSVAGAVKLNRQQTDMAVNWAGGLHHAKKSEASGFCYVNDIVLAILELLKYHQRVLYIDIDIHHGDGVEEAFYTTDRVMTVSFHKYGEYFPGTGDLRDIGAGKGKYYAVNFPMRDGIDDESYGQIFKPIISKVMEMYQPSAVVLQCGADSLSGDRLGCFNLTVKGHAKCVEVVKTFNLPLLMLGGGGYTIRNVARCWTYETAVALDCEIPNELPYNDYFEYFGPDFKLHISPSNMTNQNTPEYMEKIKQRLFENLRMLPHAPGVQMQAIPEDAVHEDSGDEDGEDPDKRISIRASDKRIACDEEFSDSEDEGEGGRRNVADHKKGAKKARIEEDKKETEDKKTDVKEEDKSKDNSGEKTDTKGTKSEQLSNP
Experimental: HDAC2 Enzymatic Inhibition Assay in SH-SY5Y Cell Lysate with an Exogenous Substrate
SH-SY5Y cells (Sigma) were cultured in Eagle's Modified Essential Medium supplemented with 10% fetal bovine serum and pen/strep. Twenty-four hours prior to compound dosing 20 uL of cells were plated in white 384 well plates at a density of 1,500 cells/well. Compounds were serially diluted in neat DMSO and then diluted 1:100 v/v into media without FBS and mixed. Media was removed from the plated cells and the diluted compounds in serum free media (1% v/v final DMSO) were added and incubated at 37° C. for five hours. Ten uL of HDAC-Glo 2 reagent with 0.1% Triton X-100 was then added, the plate was mixed and allowed to develop at room temperature for 100 minutes. Plates were then read with a Spectramax LMax luminometer employing a 0.4 s integration time. Dose response curves were constructed with normalized data where CI-994 at 100 uM was defined as 100% inhibition and DMSO alone as 0% inhibition.
as §11

[3] = molecular target: T3, Full length Human HDAC2 (Homo sapiens, UniProt Q92769); assay: HDAC2 enzymatic assay (deacetylation of FAM-labeled peptide substrate, microfluidic electrophoresis); type: biochemical; conditions: recombinant enzymatic assay
T3 construct: Full length Human HDAC2; FLAG (C); host or cells: baculovirus expression system
T3 sequence (Q92769 whole entry): as above
Experimental: as §1, §2, §3, §4, §5, §6, §7, §8, §9, §10, §11

## Nc1ccc(-c2cccs2)nc1NC(=O)N1CC(Cc2ncccn2)C1 [Compound 68]
[1]; Table 2, class symbols
  IC50: < 0.5 µM
[2]
  IC50: 0.5 to 1 µM
[3]; Table 2, class symbols
  IC50: 1 to 2 µM

## Nc1ccc(-c2cccs2)nc1NC(=O)N1CC(Cc2ncc(F)cn2)C1 [Compound 69]
[1]; Table 2, class symbols
  IC50: < 0.5 µM
[2]
  IC50: 1 to 2 µM
[3]; Table 2, class symbols
  IC50: 1 to 2 µM

## Nc1ccc(-c2cccs2)nc1NC(=O)N1CC(C(F)(F)c2ncccn2)C1 [Compound 70]
[1]; Table 2, class symbols
  IC50: < 0.5 µM
[2]
  IC50: 1 to 2 µM
[3]; Table 2, class symbols
  IC50: 0.5 to 1 µM

## Cn1ccnc1CC1CN(C(=O)Nc2nc(-c3ccc(F)cc3)ccc2N)C1 [Compound 71]
[1]; Table 2, class symbols
  IC50: 0.5 to 1 µM
[2]
  IC50: 0.5 to 1 µM
[3]; Table 2, class symbols
  IC50: > 2 µM

## Cc1ccnc(CC2CN(C(=O)Nc3nc(-c4ccc(F)cc4)ccc3N)C2)n1 [Compound 72]
[1]; Table 2, class symbols
  IC50: < 0.5 µM
[2]
  IC50: 1 to 2 µM
[3]; Table 2, class symbols
  IC50: 0.5 to 1 µM

## Nc1ccc(-c2ccc(F)cc2)nc1NC(=O)N1CC(Cn2cccn2)C1 [Compound 73]
[1]; Table 2, class symbols
  IC50: 0.5 to 1 µM
[2]
  IC50: 1 to 2 µM
[3]; Table 2, class symbols
  IC50: 1 to 2 µM

## Nc1ccc(-c2ccc(F)cc2)nc1NC(=O)N1CC(Cc2ccccn2)C1 [Compound 74]
[1]; Table 2, class symbols
  IC50: < 0.5 µM
[2]
  IC50: 1 to 2 µM
[3]; Table 2, class symbols
  IC50: 0.5 to 1 µM

## Nc1ccc(-c2ccc(F)cc2)nc1NC(=O)N1CC(Cc2ncc(C(F)F)cn2)C1 [Compound 76]
[1]; Table 2, class symbols
  IC50: < 0.5 µM
[2]
  IC50: 1 to 2 µM
[3]; Table 2, class symbols
  IC50: 0.5 to 1 µM

## Nc1ccc(-c2ccc(F)cc2)nc1NC(=O)N1CC(Cc2ccc(F)cn2)C1 [Compound 77]
[1]; Table 2, class symbols
  IC50: < 0.5 µM
[2]
  IC50: > 2 µM
[3]; Table 2, class symbols
  IC50: 1 to 2 µM

## Nc1ccc(-c2ccc(F)cc2)nc1NC(=O)N1CC(Cc2cnc(C(F)(F)F)nc2)C1 [Compound 78]
[1]; Table 2, class symbols
  IC50: > 2 µM
[2]
  IC50: > 2 µM
[3]; Table 2, class symbols
  IC50: > 2 µM

## Cc1cccc(CC2CN(C(=O)Nc3nc(-c4ccc(F)cc4)ccc3N)C2)n1 [Compound 79]
[1]; Table 2, class symbols
  IC50: 0.5 to 1 µM
[2]
  IC50: > 2 µM
[3]; Table 2, class symbols
  IC50: 1 to 2 µM

## Cc1ncc(CC2CN(C(=O)Nc3nc(-c4ccc(F)cc4)ccc3N)C2)cn1 [Compound 80]
[1]; Table 2, class symbols
  IC50: 0.5 to 1 µM
[2]
  IC50: 1 to 2 µM
[3]; Table 2, class symbols
  IC50: 1 to 2 µM

## CC(F)(F)c1cnc(CC2CN(C(=O)Nc3nc(-c4ccc(F)cc4)ccc3N)C2)nc1 [Compound 81]
[1]; Table 2, class symbols
  IC50: < 0.5 µM
[2]
  IC50: > 2 µM
[3]; Table 2, class symbols
  IC50: 0.5 to 1 µM

## COCc1cnc(CC2CN(C(=O)Nc3nc(-c4ccc(F)cc4)ccc3N)C2)nc1 [Compound 82]
[1]; Table 2, class symbols
  IC50: < 0.5 µM
[2]
  IC50: 1 to 2 µM
[3]; Table 2, class symbols
  IC50: 0.5 to 1 µM

## COCc1ccc(CC2CN(C(=O)Nc3nc(-c4ccc(F)cc4)ccc3N)C2)nc1 [Compound 83]
[1]; Table 2, class symbols
  IC50: < 0.5 µM
[2]
  IC50: 1 to 2 µM
[3]; Table 2, class symbols
  IC50: 0.5 to 1 µM

## Nc1ccc(-c2ccc(F)cc2)nc1NC(=O)N1CC(Cc2ncc(C(F)(F)F)cn2)C1 [Compound 84]
[1]; Table 2, numeric value
  IC50: 0.346 µM
[2]
  IC50: > 2 µM
[3]; Table 2, numeric value
  IC50: 1.19 µM

## Cn1ccnc1CC1(F)CN(C(=O)Nc2nc(-c3ccc(F)cc3)ccc2N)C1 [Compound 86]
[1]; Table 2, class symbols
  IC50: 1 to 2 µM
[2]
  IC50: 1 to 2 µM
[3]; Table 2, class symbols
  IC50: > 2 µM

## COC1(Cc2nccn2C)CN(C(=O)Nc2nc(-c3ccc(F)cc3)ccc2N)C1 [Compound 87]
[1]; Table 2, class symbols
  IC50: > 2 µM
[2]
  IC50: 1 to 2 µM
[3]; Table 2, class symbols
  IC50: > 2 µM
